Test results from paper PMC12208134, “Structure-activity relationships of 1,5-dihydro-2H-benzo[b][1,4]diazepine-2,4(3H)-diones as inhibitors of Trypanosoma cruzi” (RSC medicinal chemistry, 2025).
Converted amounts (≈) assume the structure as drawn. “And” between values parts separate entries of the source, which are not always exact repeats. Equal values may be shown once. Read-outs that look alike come from different tables or passages of the source.

What was measured:
host Vero cell = assay: Vero host cell toxicity in the intracellular T. cruzi assay; type: cell-based; set-up: key to Max Effect (Vero): % inhibition; 0% = DMSO control, 100% = 16 μM nifurtimox control; conditions: for IC50 / EC50: Chlorocebus sabaeus; for IC50: host Vero cell, read-out: Vero pIC50 (converted); for Hill Slope (Vero) / Max Effect (Vero) / pEC50 (Vero) / EC50: individual replicate; for EC50: Vero
Experimental: (§1) T. cruzi intracellular potency and rate-of-kill assay (high content imaging) ^1
(§2) Silvio X10/7 T. cruzi trypomastigotes were incubated at 37°C 5% CO2 with 1.6×10^7 Vero cells overnight at MOI10 in MEM media supplemented with 10% foetal calf serum (FCS). Extracellular parasites were removed by aspirating cell culture supernatant, and washing Vero monolayer with 10 ml serum-free MEM three times. Vero cells were then harvested by trypsinization and dispensed at 2×10^3 per well (50 μl in MEM/ 1% FCS) into 384 well plates pre-stamped with compounds in DMSO using automated washer/ dispenser EL406 and liquid handling software (Biotek). Plates were then incubated at 37°C in 5% CO2 for 96 h. For rate-of-kill determination, plates were incubated for 24h, 48h, 72h and 96h.
(§3) Plates were subsequently fixed with 4% formaldehyde for 20 min, permeabilised and stained with 5 μgml^-1 Hoechst 33342/ 0.1% Triton/ PBS Thimerosal 20 min. Automated imaging was performed by an Operetta high content imaging system using 20x objective (PerkinElmer). Images were analysed with an algorithm generated in Columbus (PerkinElmer) to segment Vero cell nuclei, Vero cell cytoplasm and parasite nuclei/ kinetoplasts, reporting number of amastigotes per Vero cell, percent infected Vero cells and total number of Vero cells. Compound potencies against T. cruzi parasites were calculated in IDBS Activitybase using percent infected Vero cells and Vero toxicity curves generated using number of host cells. All data was normalised to percent inhibition based on the raw data values for the 100% effect control (16 μM nifurtimox) and the 0% effect control (DMSO) on each plate at each time point. Curve fitting was carried out using a four-parameter equation as previously described. ^2 For rate-of-kill experiments the percent infected cells at each compound concentration was plotted against time.

[1] = Human liver microsomal intrinsic clearance; type: in vitro ADME
[2] = Kinetic aqueous solubility by CAD; type: physicochemical; conditions: kinetic from dmso stock
[3] = ChromLogD pH7.4 (chromatographic hydrophobicity index), PFI, LLE; conditions: for PFI: ChromLogDpH7.4 + no. aromatic rings; for chromatographic logD: pH 7.4
Source text: [23] Alongside PFI, LLE (ligand lipophilic efficiency, T. cruzi pIC50 - ChromLogDpH7.4) was also monitored to identify changes where the impact on potency was not driven by increasing lipophilicity.

[4] = Mouse liver microsomal intrinsic clearance; type: in vitro ADME
[5] = tested on: intracellular T. cruzi amastigotes; assay: T. cruzi intracellular potency assay (high content imaging); type: cell-based, Trypanosoma cruzi; set-up: key to Max Effect (T. cruzi): % inhibition; 0% = DMSO control, 100% = 16 μM nifurtimox control; conditions: for Emax / IC50 / EC50: Trypanosoma cruzi; for Emax / Hill slope (T. cruzi) / Max Effect (T. cruzi) / pEC50 (T. cruzi) / EC50: individual replicate; for Emax: read-out: Max Effect (T. cruzi); for IC50: intracellular amastigotes in Vero cells, 96 h, mean of N ≥ 3, read-out: T. cruzi pIC50 (converted); for EC50: read-out: pEC50 (T. cruzi) (converted)
Experimental: as §1, §2, §3

[6] = kinetic, CAD, read-out: Aqueous solubility

| HLM CLi ([1]; human liver microsomes) [mL/min/g] | solubility [2, 6] [µM] | PFI [3] | chromatographic logD [3] | MLM CLi ([4]; mouse liver microsomes) [mL/min/g] | SMILES | IC50 (host Vero cell) [µM] | Hill Slope (Vero) (host Vero cell) | Max Effect (Vero) (host Vero cell) | pEC50 (Vero) (host Vero cell) | Emax [5] [%] | IC50 [5] [µM] | Hill slope (T. cruzi) [5] | Max Effect (T. cruzi) [5] | pEC50 (T. cruzi) [5] | EC50 (host Vero cell) [µM] | HLM CLi ([1]; human, microsomes) [mL/min/g] | solubility [2] [µM] | MLM CLi ([4]; mouse, microsomes) [mL/min/g] | EC50 [5] [µM] |
| --- | --- | --- | --- | --- | --- | --- | --- | --- | --- | --- | --- | --- | --- | --- | --- | --- | --- | --- | --- |
| <0.4 | 23 (≈ 8.89 µg/mL) | 8.7 | 5.7 | 3.5 | Cc1ccc(NC(=O)NC2CN(c3ccccc3)c3ccccc3NC2=O)cc1 (centres unmarked) [Compound 10, 1-(4-oxo-1-phenyl-2,3,4,5-tetrahydro-1H-benzo[b][1,4]diazepin-3-yl)-3-(p-tolyl)urea] | 12.6 | 3.6 and 42.2 and 4.8 and 14.3 | 96 and 91 and 95 and 63 | 4.7 and 5.2 and 4.6 and 5.3 | 86 | 7.94 | 3.5 and 12.0 and 3.2 and 0.8 | 83 and 85 | 5.0 and 4.9 and 5.3 |  |  |  |  |  |
| <0.4 | 27 (≈ 10.5 µg/mL) | 9.1 | 6.1 | 4.9 | Cc1ccc(NC(=O)NC2COc3ccccc3N(c3ccccc3)C2=O)cc1 (centres unmarked) [Compound 13, 1-(4-oxo-5-phenyl-2,3,4,5-tetrahydrobenzo[b][1,4]oxazepin-3-yl)-3-(p-tolyl)urea] | 50.1 | 12.0 and 13.9 and 15.1 and 6.4 | 80 and 67 and 70 and 76 and 15 and 5.57 | 4.3 and < 4.3 |  | 25.1 | 2.6 and 8.4 and 3.4 and 2.9 and 1.5 | 84 and 89 and 94 and 80 and 46 | 4.6 and 4.8 and 4.7 and 4.5 and < 4.3 | 39.8 |  |  |  |  |
| <0.4 | 25 (≈ 9.16 µg/mL) | 6.2 | 4.2 | 1.8 | Cc1ccc(NC(=O)NC2C(=O)Nc3ccccc3N(C(C)C)C2=O)cc1 (centres unmarked) [Compound 7, 1-(1-isopropyl-2,4-dioxo-2,3,4,5-tetrahydro-1H-benzo[b][1,4]diazepin-3-yl)-3-(p-tolyl)urea] | > 50.1 |  | 25 and 30 and 20 and -11 |  |  | 12.6 | 2.0 and 0.8 and 3.3 and 2.1 | 86 and 58 and 83 and 89 | 4.9 and 5.0 | > 50.1 |  |  |  | 20 |
|  |  |  |  |  | CC(C)N(C(=O)CN1C(=O)C(N)C(=O)N(c2ccccc2)c2ccccc21)c1ccccc1 (single isomer, unassigned) [14-Ent 1, 2-(3-amino-2,4-dioxo-5-phenyl-2,3,4,5-tetrahydro-1H-benzo[b][1,4]diazepin-1-yl)-N-isopropyl-N-phenylacetamide] |  |  | 27 and 35 | < 4.3 | 94 |  | 3.1 and 5.7 | 88 | 6.4 | > 50.1 |  |  |  | 0.316 |
|  |  |  |  |  | CC(C)N(C(=O)CN1C(=O)C(N)C(=O)N(c2ccccc2)c2ccccc21)c1ccccc1 (single isomer, unassigned) [14-Ent 2, 2-(3-amino-2,4-dioxo-5-phenyl-2,3,4,5-tetrahydro-1H-benzo[b][1,4]diazepin-1-yl)-N-isopropyl-N-phenylacetamide] |  |  | 5.45 and 20 | < 4.3 |  |  | 85.9 and 4.0 | 82 | 6.7 and 6.6 |  |  |  |  |  |

| SMILES | HLM CLi ([1]; human liver microsomes) [mL/min/g] | solubility [2, 6] [µM] | PFI [3] | chromatographic logD [3] | MLM CLi ([4]; mouse liver microsomes) [mL/min/g] | IC50 (host Vero cell) [µM] | Hill Slope (Vero) (host Vero cell) | Max Effect (Vero) (host Vero cell) | pEC50 (Vero) (host Vero cell) | Emax [5] [%] | IC50 [5] [µM] | Hill slope (T. cruzi) [5] | Max Effect (T. cruzi) [5] | pEC50 (T. cruzi) [5] | EC50 (host Vero cell) [µM] | HLM CLi ([1]; human, microsomes) [mL/min/g] | solubility [2] [µM] | MLM CLi ([4]; mouse, microsomes) [mL/min/g] | EC50 [5] [µM] |
| --- | --- | --- | --- | --- | --- | --- | --- | --- | --- | --- | --- | --- | --- | --- | --- | --- | --- | --- | --- |
| O=C(Nc1ccc(F)cc1)NC1C(=O)Nc2ccccc2N(c2ccccc2)C1=O (centres unmarked) [Compound 3, 1-(2,4-dioxo-1-phenyl-2,3,4,5-tetrahydro-1H-benzo[b][1,4]diazepin-3-yl)-3-(4-fluorophenyl)urea] |  |  | 7.4 | 4.4 |  | > 50.1 |  | -12 and 14 and 22 and 36 |  | 90 | 10 | 2.0 and 0.8 and 2.1 and 1.3 | 92 and 95 and 83 | 5.1 and 4.8 | > 50.1 | <0.4 | 26 (≈ 10.5 µg/mL) | 0.6 | 12.6 |
